Patent US20100099564A1, “HERBICIDE COMBINATION COMPRISING DIMETHOXYTRIAZINYL-SUBSTITUTED DIFLUOROMETHANESULFONYLANILIDES” (BAYER CROPSCIENCE AG, priority 2008, published 2010)
Like-named read-outs stand apart in the source and are kept apart here.

Columns and labels:
Format in all cases: in vivo
[1] = tested on: Triticum aestivum (TRZAS); experiment: Post-emergence action, greenhouse pot test, visual scoring: TRZAS; details: Triticum aestivum, post-emergence, read-out: % activity found
Method: (§1) Seeds or rhizome pieces of mono- and dicotyledonous harmful and useful plants were placed in peat pots (diameter 4 cm) filled with sandy loam and then covered with soil. The pots were kept in a greenhouse under optimum conditions. In addition, harmful plants encountered in paddy rice cultivation were cultivated in pots with a water level 2 cm above the soil surface.
(§2) About three weeks after the start of the cultivation, the test plants were treated at the 2- to 3-leaf stage. The herbicides, formulated as powder or liquid concentrates, were, either alone or in the combinations according to the invention, sprayed in various dosages on to the green parts of the plants using an application rate of 600 l of water/ha (converted). For further cultivation of the plants, the pots were then again kept under optimum conditions in a greenhouse.
(§3) The visual scoring of the herbicidal effects was carried out in intervals up to 21 days after the treatment. Scoring was carried out in percent in comparison to the untreated control plants. 0%=no herbicidal activity, 100%=complete herbicidal activity=complete kill.
(§4) The percentages from the treatments with the herbicides alone (=individual application) and with the combinations according to the invention (=mixtures) were employed to calculate interactions using the method of Colby. When the observed efficacies of the mixtures exceed the formal sum of the values of the tests with individual applications, they also exceed the expected value according to Colby, which is calculated using the formula below (cf. S. R. Colby; in Weeds 15 (1967) pp. 20 to 22):
(§5) Here: • A, B=activity of components A and B in percent at a dosage of a and b g of ai/ha (=gramm of active substance per hectare), respectively. • E=expected value in % at a dosage of a+b g of ai/ha.
(§6) The combinations according to the invention of herbicides from group (A) with herbicides from group (B) were tested on a broad spectrum of important harmful plants (weed grasses, broad-leaved weeds/Cyperaceae) and useful plants: Triticum aestivum (TRZAS), Stellaria media (STEME), Lolium multiflorum (LOLMU), Veronica persica (VERPE), Alopecurus myosuroides (ALOMY), Matricaria inodora (MATIN), Brassica napus (BRSNW), Viola tricolor (VIOTR), Avena fatua (AVEFA), Amaranthus retroflexus (AMARE), Zea mays (ZEAMX), Pharbitis purpurea (PHBPU), Setaria viridis (SETVI), Fallopia (ex Polygonum) convolvulus (POLCO), Echinochloa crusgaffi (ECHCG), Abuthilon theophrasti (ABUTH), Cyperus esculentus (CYPES), Oryza sativa (ORYSA).
(§7) Of particular interest are the results shown in the tables (Tab.) below, where the following key is used: • (1) EPPO code (former Bayer code) for the treated plant (see above) • (2) Time of scoring: DAT (days after treatment) • (3) Component A tested (identifying number) • (4) Component B tested (identifying number) • (5) Dosage component A [g of ai/ha] • (6) Dosage component B [g of ai/ha] • (7) % activity found • (8) E value (calculated according to Colby; see above) • (9) Comments: “SYNERGY” =synergistic interaction (E value<% activity found); “SAFENING”=safener action on useful plant (E value>% activity found)

[2] = tested on: Lolium multiflorum (LOLMU); experiment: Post-emergence action, greenhouse pot test, visual scoring: LOLMU
Method: as §1, §2, §3, §4, §5, §6, §7

[3] = tested on: Alopecurus myosuroides (ALOMY); experiment: Post-emergence action, greenhouse pot test, visual scoring: ALOMY; details: Alopecurus myosuroides, post-emergence, read-out: % activity found; for pest or weed control at 40 g/ha: B 40 g of ai/ha
Method: as §1, §2, §3, §4, §5

Zea mays (ZEAMX) = experiment: Post-emergence action, greenhouse pot test, visual scoring: ZEAMX; details: Zea mays, post-emergence, read-out: % activity found; for plant injury at 40 g/ha: B 40 g of ai/ha; for plant injury at 700 g/ha: B 700 g of ai/ha; for plant injury at 2100 g/ha: B 2100 g of ai/ha
Method: as §1, §2, §3, §4, §5, §6, §7

Setaria viridis (SETVI) = experiment: Post-emergence action, greenhouse pot test, visual scoring: SETVI; details: Setaria viridis, post-emergence, 504 h, 21 DAT, read-out: % activity found
Method: as §1, §2, §3, §4, §5, §6, §7

[4] = tested on: Cyperus esculentus (CYPES); experiment: Post-emergence action, greenhouse pot test, visual scoring: CYPES; details: 21 DAT
Method: as §1, §2, §3, §4, §5

Oryza sativa (ORYSA) = experiment: Post-emergence action, greenhouse pot test, visual scoring: ORYSA; details: Oryza sativa, post-emergence, 504 h, 21 DAT, read-out: % activity found
Method: as §1, §2, §3, §4, §5, §6, §7

[5] = tested on: Matricaria inodora (MATIN); experiment: Post-emergence action, greenhouse pot test, visual scoring: MATIN
Method: as §1, §2, §3, §4, §5

Viola tricolor (VIOTR) = experiment: Post-emergence action, greenhouse pot test, visual scoring: VIOTR; details: 21 DAT
Method: as §1, §2, §3, §4, §5, §6, §7

Avena fatua (AVEFA) = experiment: Post-emergence action, greenhouse pot test, visual scoring: AVEFA
Method: as §1, §2, §3, §4, §5, §6, §7

[6] = tested on: Pharbitis purpurea (PHBPU); experiment: Post-emergence action, greenhouse pot test, visual scoring: PHBPU; details: 21 DAT, B 2100 g of ai/ha
Method: as §1, §2, §3, §4, §5, §6, §7

[7] = tested on: Fallopia (ex Polygonum) convolvulus (POLCO); experiment: Post-emergence action, greenhouse pot test, visual scoring: POLCO; details: 21 DAT, B 700 g of ai/ha
Method: as §1, §2, §3, §4, §5, §6, §7

Veronica persica (VERPE) = experiment: Post-emergence action, greenhouse pot test, visual scoring: VERPE; details: 21 DAT
Method: as §1, §2, §3, §4, §5, §6, §7

[8] = 504 h, 21 DAT, B 700 g of ai/ha

SMILES: O=C(Nc1ccc(F)cc1F)c1cccnc1Oc1cccc(C(F)(F)F)c1 [B3-1, N-(2,4-difluorophenyl)-2-[3-(trifluoromethyl)phenoxy]-3-pyridinecarboxamide]
- plant injury at 40 g/ha ([1]; 240 h, 10 DAT, B 40 g of ai/ha): 20%
- % activity found ([2]; 21 DAT, B 120 g of ai/ha): 30%
- pest or weed control at 40 g/ha ([3]; 240 h, 10 DAT): 40%
- pest or weed control at 40 g/ha ([3]; 504 h, 21 DAT): 10%
- pest or weed control at 120 g/ha ([3]; 504 h, 21 DAT, B 120 g of ai/ha): 20%
- plant injury at 40 g/ha (Zea mays (ZEAMX); 240 h, 10 DAT): 40%
- plant injury at 120 g/ha (Zea mays (ZEAMX); 240 h, 10 DAT, B 120 g of ai/ha): 40%
- plant injury at 40 g/ha (Zea mays (ZEAMX); 504 h, 21 DAT): 30%
- pest or weed control at 40 g/ha (Setaria viridis (SETVI); B 40 g of ai/ha): 60%
- % activity found ([4]; B 40 g of ai/ha): 0%
- % activity found ([4]; B 120 g of ai/ha): 0%
- plant injury at 40 g/ha (Oryza sativa (ORYSA); B 40 g of ai/ha): 30%
- plant injury at 120 g/ha (Oryza sativa (ORYSA); B 120 g of ai/ha): 50%

SMILES: CCC(=O)Nc1ccc(Cl)c(Cl)c1 [B3-8, N-(3,4-dichlorophenyl)propanamide]
- plant injury at 700 g/ha [1, 8]: 10%
- % activity found ([2]; 10 DAT, B 700 g of ai/ha): 0%
- pest or weed control at 700 g/ha [3, 8]: 0%
- pest or weed control at 2100 g/ha ([3]; 504 h, 21 DAT, B 2100 g of ai/ha): 20%
- % activity found ([5]; 10 DAT, B 700 g of ai/ha): 0%
- % activity found ([5]; 10 DAT, B 2100 g of ai/ha): 0%
- % activity found ([5]; 21 DAT, B 700 g of ai/ha): 0%
- % activity found ([5]; 21 DAT, B 2100 g of ai/ha): 0%
- % activity found (Viola tricolor (VIOTR); B 700 g of ai/ha): 60%
- % activity found (Viola tricolor (VIOTR); B 2100 g of ai/ha): 70%
- % activity found (Avena fatua (AVEFA); 10 DAT, B 700 g of ai/ha): 20%
- % activity found (Avena fatua (AVEFA); 21 DAT, B 700 g of ai/ha): 0%
- % activity found (Avena fatua (AVEFA); 21 DAT, B 2100 g of ai/ha): 10%
- plant injury at 700 g/ha (Zea mays (ZEAMX); 240 h, 10 DAT): 0%
- plant injury at 2100 g/ha (Zea mays (ZEAMX); 240 h, 10 DAT): 0%
- plant injury at 700 g/ha (Zea mays (ZEAMX); 504 h, 21 DAT): 0%
- plant injury at 2100 g/ha (Zea mays (ZEAMX); 504 h, 21 DAT): 0%
- % activity found [6]: 40%
- pest or weed control at 2100 g/ha (Setaria viridis (SETVI); B 2100 g of ai/ha): 80%
- % activity found [7]: 50%
- % activity found ([4]; B 700 g of ai/ha): 0%
- % activity found ([4]; B 2100 g of ai/ha): 0%
- plant injury at 700 g/ha (Oryza sativa (ORYSA); B 700 g of ai/ha): 0%
- plant injury at 2100 g/ha (Oryza sativa (ORYSA); B 2100 g of ai/ha): 0%

SMILES: COCCOc1ccccc1S(=O)(=O)NC(=O)Nc1nc(OC)nc(OC)n1 [B7-6, N-[[(4,6-dimethoxy-1,3,5-triazin-2-yl)amino]carbonyl]-2-(2-methoxyethoxy)benzenesulfonamide]
- % activity found ([2]; 10 DAT, dose (6) 7): 40%
- % activity found ([2]; 21 DAT, dose (6) 7): 10%
- % activity found (Veronica persica (VERPE); dose (6) 7): 0%
- % activity found (Veronica persica (VERPE); dose (6) 21): 0%
- % activity found ([4]; dose (6) 21): 0%
